We go through 7 compounds from PMC7168207, “Dibasic Derivatives of Phenylcarbamic Acid as Prospective Antibacterial Agents Interacting with Cytoplasmic Membrane” (Antibiotics, 2020).

Series [1] has as its system human monocytic leukemia THP-1 cells. Description: in vitro antiproliferative assay (WST-1). Type of series: cell-based. As to conditions: THP-1 cells, WST-1, 24 h, read-out: Tox IC50. How it is done: The preliminary in vitro screening of the antiproliferative effect of the investigated compounds was performed using a Water Soluble Tetrazolium salts-1 (WST-1) assay kit and a human monocytic leukemia THP-1 cell line by means of the method described recently. The principle of the WST-1 assay kit is the […] mitochondrial dehydrogenases by antiproliferative compounds. The activity of this enzyme directly correlates with the number of metabolically active cells in the culture. The antiproliferative effect was evaluated as the IC50 value (the concentration of the compound causing 50% inhibition of cell proliferation).
Human monocytic leukemia THP-1 cells were used for in vitro antiproliferative assay. Cells were obtained from the European Collection of Cell Cultures (ECACC, Salisbury, UK) and routinely cultured in RPMI (Roswell Park Memorial Institute) 1640 medium supplemented with 10% fetal bovine serum, 2% L-glutamine, 1% penicillin, and streptomycin at 37 °C with 5% CO2. Cells were passaged at approximately one-week intervals. The antiproliferative activity of the compounds was determined using a Water Soluble Tetrazolium Salts-1 (WST-1, 2-(4-iodophenyl)-3-(4-nitrophenyl)-5-(2,4-disulfophenyl)-2H-tetrazolium) assay kit (Roche Diagnostics, Mannheim, Germany) according to the manufacturer’s instructions. The tested compounds were dissolved in DMSO and added in various compound concentrations to the cell suspension in the culture RPMI 1640 medium. The maximum concentration of DMSO in the assays never exceeded 0.1%. Subsequently, the cells were incubated at 37 °C with 5% CO2 for 24 h. For WST-1 assays, cells were seeded into 96-well plates (5 × 10^4 cells/well in 100 μL culture medium) in triplicate in serum-free RPMI 1640 medium, and measurements were taken 24 h after the treatment with the compounds. The median inhibition concentration values, IC50, were deduced through the production of a dose-response curve. All data were evaluated using GraphPad Prism 5.00 software (GraphPad Software, San Diego, CA, USA).
A general note: Tetrazolium assays rely on reduction of a dye to a coloured formazan, in cell work by metabolically active cells.

Series [2] has as its system methicillin-resistant S. aureus 63718. Put plainly: MIC, broth microdilution. The class given is cell-based, Staphylococcus aureus. The conditions noted are these: Staphylococcus aureus; MRSA1 = S. aureus 63718; read-out: MICs. As for the experimental part: (§1) The modified broth microdilution method was used for in vitro evaluation of minimum inhibitory concentration. A small portion of bacterial colony cultivated overnight onto nutrient agar (Oxoid, Basingstoke, UK) with 5% bovine blood was suspended in sterile phosphate-buffered saline to get cell density 0.5 McFarland. This inoculum was diluted to reach the final concentration of bacterial cells 5 × 10^5 CFU/mL in the wells. […] For plates with staphylococci, cation adjusted Mueller–Hinton (CaMH) broth (Oxoid) was used; enterococci were cultivated in brain heart infusion (BHI, Oxoid). […] A drug-free control and a sterility control were included. Inoculated plates were incubated in aerobic atmosphere at 37 °C overnight. […] After evaluation of MICs, 10 µL of aliquots from the wells were put onto Mueller–Hinton agar. The agar plates were cultivated at 37 °C for 24 h. The minimum bactericidal concentration (MBC) was defined as the lowest concentration of the compound that killed 99.9% of the bacteria compared to the starting inoculum.
(Dilution methods test growth across graded concentrations, often in twofold steps.)

The subject of series [3] is S. aureus ATCC 29213. Put plainly: MIC, broth microdilution. Type of series: cell-based, Staphylococcus aureus. As to conditions: Staphylococcus aureus, ATCC29213; SA = S. aureus ATCC 29213; read-out: MICs. How it is done: as §1
The subject of series [4] is methicillin-resistant S. aureus SA 630. Description: MIC, broth microdilution. Type of series: cell-based, Staphylococcus aureus. The conditions noted are these: Staphylococcus aureus; MRSA2 = SA 630; read-out: MICs. As for the experimental part: as §1
For series [5], the system named is methicillin-resistant S. aureus SA 3202. Put plainly: MIC, broth microdilution. The conditions noted are these: Staphylococcus aureus; MRSA3 = SA 3202; read-out: MICs. The class given is cell-based, Staphylococcus aureus. As for the experimental part: as §1
Series [6] has as its system Candida albicans CCM 8261. Description: minimum fungistatic concentration, RPMI 1640. The class given is cell-based. As to conditions: CCM8261, CA = C albicans CCM 8261, 48 h. As for the experimental part: Fungistatic activity was tested similarly in RPMI (Roswell Park Memorial Institute) 1640 medium (Sigma, Pool, UK). […] A growth control and sterility control were included. The colonies of C. albicans grown overnight on Sabourad dextrose agar were suspended in sterile phosphate-buffered saline (PBS) to get cell density 0.5 McFarland. The inoculum was diluted to get a final concentration of 10^3 CFU/mL in the wells. Plates were inoculated and cultivated at 37 °C for 48 h. The minimum fungistatic concentration was visually evaluated as the lowest concentration of a tested compound, which inhibited 100% of yeast growth. 5-Flucytosin (Sigma, UK) was used as a positive control.

Details of series [7]: method as in PMID 30274224. The conditions noted are these: isocratic RP-HPLC, extrapolated lipophilicity index; cited from earlier work.
Details of series [8]: method as in PMID 30274224. The conditions noted are these: cited from earlier work.
Details of series [9]: method as in PMID 30274224. The conditions noted are these: methanolic solutions, c = 8.0 × 10^−5 M; cited from earlier work.
Series [10] has as its system vancomycin-resistant enterococci VRE 368. Description: MIC, broth microdilution. Type of series: cell-based, Enterococcus faecalis. The conditions noted are these: Enterococcus; VRE2 = VRE 368; read-out: MICs. As for the experimental part:
as §1

For series [11], the system named is E. faecalis ATCC 29212. Put plainly: MIC, broth microdilution. Type of series: cell-based, Enterococcus faecalis. As to conditions: Enterococcus faecalis, ATCC 29212 / ATCC 29213; EF = E. faecalis ATCC 29213. How it is done:
as §1

In series [12] the test system is vancomycin-resistant enterococci VRE 342B. Put plainly: MIC, broth microdilution. The conditions noted are these: Enterococcus; VRE1 = VRE 342B; read-out: MICs. The class given is cell-based, Enterococcus faecalis. As for the experimental part:
as §1

Series [13] relates to vancomycin-resistant enterococci VRE 725B. Description: MIC, broth microdilution. The class given is cell-based, Enterococcus faecalis. The conditions noted are these: Enterococcus; VRE3 = VRE 725B; read-out: MICs. As for the experimental part: as §1

“And” between values parts separate entries of the source, which are not always exact repeats. Equal values may be shown once. Read-outs that look alike come from different tables or passages of the source. A value given as a limit tells only on which side of the number the result lay.

In the case of `CCCCCCOc1ccccc1NC(=O)OC(CN(CCC)CCC)CN1CCCCCC1` (stereo not drawn) [1k], in [1] (Homo sapiens, THP-1, 24 h), the IC50 (in general, the midpoint of a concentration-inhibition curve) turned out to be 31.2 ± 2.24 µM. The MIC was > 256 µg/mL and > 390 µM in [2]; > 256 µg/mL and > 390 µM in [3]; > 256 µg/mL and > 390 µM in series [4]; > 256 µg/mL and > 390 µM in series [5]; > 128 µg/mL and > 195 µM in series [6]; > 256 µg/mL and > 390 µM in [10]. Also, the MIC in series [11] was > 256 µg/mL and > 390 µM; in series [12], > 256 µg/mL and > 390 µM; in series [13] it was > 256 µg/mL and > 390 µM. The log kw in series [7] is recorded as 5.2359. In addition, in [8], the “γ (surface tension, relative surface activity)” value was 0.06065 N/m. Besides, in series [9], the “log ε2 (Ch-T)” value was 4.10.
In the case of `CCCCOc1ccccc1NC(=O)OC(CN(CCC)CCC)CN1CCCC1` (stereo not drawn) [1a], the IC50 in series [1] (Homo sapiens, THP-1, 24 h) is 10.8 ± 1.11 µM. The MIC in series [2] is > 256 µg/mL and > 427 µM; in [3], > 256 µg/mL and > 427 µM; in [4], > 256 µg/mL and > 427 µM; in [5] it was > 256 µg/mL and > 427 µM; in series [6], > 128 µg/mL and > 213 µM; in series [10], > 256 µg/mL and > 427 µM. Besides, the MIC in [11] is > 256 µg/mL and > 427 µM; in [12], > 256 µg/mL and > 427 µM; in series [13] it was > 256 µg/mL and > 427 µM. Besides, the log kw in series [7] is 3.7688. For the same compound, the “γ (surface tension, relative surface activity)” value in series [8] is on record as 0.06464 N/m. In addition, in series [9], the “log ε2 (Ch-T)” value is on record as 4.19.
`CCCCCCCOc1cccc(NC(=O)OC(CN(CCC)CCC)CN2CCCCCC2)c1` (stereo not drawn) [1p]: the IC50 is below 6.5 µM in [1] (Homo sapiens, THP-1, 24 h) and 6.32 ± 0.58 µM in series [1]. Moreover, the MIC in series [2] was 256 µg/mL and 455 µM; in series [3] it was > 256 µg/mL and > 455 µM; in [4], > 256 µg/mL and > 455 µM; in series [5], > 256 µg/mL and > 455 µM; in [6], > 128 µg/mL and > 227 µM; in [10], 256 µg/mL and 455 µM. Also, the MIC in series [11] was 8 µg/mL and 14.2 µM; in [12] it was 64 µg/mL and 113 µM; in series [13], 16 µg/mL and 28.4 µM. Further, the log kw in series [7] is given as 6.1749. Further, the “γ (surface tension, relative surface activity)” value in series [8] was 0.05692 N/m. Further, the “log ε2 (Ch-T)” value in [9] is reported as 4.20.
On to `CCCCCOc1cccc(NC(=O)OC(CN(CCC)CCC)CN2CCCCCC2)c1` (stereo not drawn) [1n], for which, in series [1] (Homo sapiens, THP-1, 24 h), the IC50 was determined as 4.99 ± 0.99 µM. Moreover, the MIC in [2] is 64 µg/mL and 119 µM; in series [3], 128 µg/mL and 239 µM; in [4], 128 µg/mL and 239 µM; in series [5] it was 256 µg/mL and 478 µM; in series [6], > 128 µg/mL and > 239 µM; in [10], 64 µg/mL and 119 µM. Further, the MIC in series [11] is 16 µg/mL and 29.9 µM; in series [12] it was 32 µg/mL and 59.9 µM; in series [13], 16 µg/mL and 29.9 µM. Further, in [7], the log kw is given as 5.2087. For the same compound, the “γ (surface tension, relative surface activity)” value in series [8] is reported as 0.06154 N/m. For the same compound, the “log ε2 (Ch-T)” value in series [9] is given as 4.18.
Consider `CCCCCOc1ccccc1NC(=O)OC(CN(CCC)CCC)CN1CCCCCC1` (stereo not drawn) [1j], for which, in series [1] (Homo sapiens, THP-1, 24 h), the IC50 worked out at 26.4 ± 1.91 µM. In addition, the MIC in series [2] was > 256 µg/mL and > 398 µM; in series [3], > 256 µg/mL and > 398 µM; in series [4], > 256 µg/mL and > 398 µM; in series [5] it was > 256 µg/mL and > 398 µM; in [6] it was > 128 µg/mL and > 199 µM; in [10] it was > 256 µg/mL and > 398 µM. The MIC in [11] was > 256 µg/mL and > 398 µM; in series [12] it was > 256 µg/mL and > 398 µM; in series [13] it was > 256 µg/mL and > 398 µM. The log kw in series [7] is on record as 4.8466. The “γ (surface tension, relative surface activity)” value in [8] is 0.06206 N/m. For the same compound, the “log ε2 (Ch-T)” value in series [9] is given as 4.22.
Take `CCCCOc1cccc(NC(=O)OC(CN(CCC)CCC)CN2CCCCCC2)c1` (stereo not drawn) [1m]: the IC50 in [1] (Homo sapiens, THP-1, 24 h) was found to be 4.9 ± 0.19 µM. In addition, the MIC in series [2] was 32 µg/mL and 61.5 µM; in series [3], 128 µg/mL and 245 µM; in series [4] it was 64 µg/mL and 122 µM; in series [5], 64 µg/mL and 122 µM; in series [6], > 128 µg/mL and > 245 µM; in [10] it was 64 µg/mL and 122 µM. In addition, the MIC in series [11] was 32 µg/mL and 61.5 µM; in series [12], 32 µg/mL and 61.5 µM; in [13], 16 µg/mL and 30.7 µM. Also, the log kw in series [7] is listed as 4.7099. For the same compound, the “γ (surface tension, relative surface activity)” value in series [8] is recorded as 0.06298 N/m. Moreover, in series [9], the “log ε2 (Ch-T)” value is reported as 4.09.
Turning to `CCCCCCOc1cccc(NC(=O)OC(CN(CCC)CCC)CN2CCCCCC2)c1` (stereo not drawn) [1o], the IC50 is below 6.5 µM in series [1] (Homo sapiens, THP-1, 24 h) and 4.71 ± 0.07 µM in series [1]. The MIC is 128 µg/mL and 233 µM in series [2]; > 256 µg/mL and > 466 µM in [3]; > 256 µg/mL and > 466 µM in series [4]; > 256 µg/mL and > 466 µM in series [5]; > 128 µg/mL and > 233 µM in series [6]; 256 µg/mL and 466 µM in [10]. Also, the MIC was 16 µg/mL and 29.2 µM in [11]; 32 µg/mL and 58.3 µM in series [12]; 8 µg/mL and 14.6 µM in [13]. In [7], the log kw is on record as 5.6569. In addition, the “γ (surface tension, relative surface activity)” value in [8] was 0.05925 N/m. The “log ε2 (Ch-T)” value in series [9] is recorded as 4.01.
